Measured values: patent US20100093763A1, “PHENYL SUBSTITUTED THIENO[2,3-d]PYRIMIDINES AND THEIR USE AS ADENOSINE A2a RECEPTOR ANTAGONISTS” (priority 2008, published 2010)
Counter-ions that a name gives are not always drawn.

Key:
[1] = molecular target: T1, human adenosine A2a receptor (Homo sapiens, UniProt P29274); test: Adenosine A2a Receptor Functional Assay (A2AGAL2); format: cell-based; conditions: CHO-K1 cells overexpressing human A2a receptor, cAMP inducible beta-galactosidase reporter, 15 nM NECA agonist challenge
T1 construct: expressed in transfected cells; host or cells: CHO-K1 cells with cAMP inducible beta-galactosidase reporter gene
Description: Adenosine A2a Receptor Functional Assay (A2AGAL2)
To initiate the functional assay, cryopreserved CHO—K1 cells overexpressing the human adenosine A2a receptor and containing a cAMP inducible beta-galactosidase reporter gene were thawed, centrifuged, DMSO containing media removed, and then seeded with fresh culture media into clear 384-well tissue culture treated plates (BD #353961) at a concentration of 10K cells/well. Prior to assay, these plates were cultured for two days at 37° C., 5% CO2, 90% Rh. On the day of the functional assay, culture media was removed and replaced with 45 uL assay medium (Hams/F-12 Modified (Mediatech #10-080CV) supplemented w/0.1% BSA). Test compounds were diluted and 11 point curves created at a 1000× concentration in 100% DMSO. Immediately after addition of assay media to the cell plates, 50 nL of the appropriate test compound antagonist or agonist control curves were added to cell plates using a Cartesian Hummingbird. Compound curves were allowed to incubate at room temperature on cell plates for approximately 15 minutes before addition of a 15 nM NECA (Sigma E2387) agonist challenge (5 uL volume). A control curve of NECA, a DMSO/Media control, and a single dose of Forskolin (Sigma F3917) were also included on each plate. After additions, cell plates were allowed to incubate at 37° C., 5% CO2, 90% Rh for 5.5-6 hours. After incubation, media was removed, and cell plates were washed 1× 50 uL with DPBS w/o Ca & Mg (Mediatech 21-031-CV). Into dry wells, 20 uL of 1× Reporter Lysis Buffer (Promega E3971 (diluted in dH2O from 5× stock)) was added to each well and plates frozen at −20° C. overnight. For β-galactosidase enzyme calorimetric assay, plates were thawed out at room temperature and 20 μL 2× assay buffer (Promega) was added to each well. Color was allowed to develop at 37° C., 5% CO2, 90% Rh for 1-1.5 h or until reasonable signal appeared. The calorimetric reaction was stopped with the addition of 60 μL/well 1M sodium carbonate. Plates were counted at 405 nm on a SpectraMax Microplate Reader (Molecular Devices). Data was analyzed in Microsoft Excel and IC/EC50 curves were fit using a standardized macro.

[2] = molecular target: T2, human adenosine A1 receptor (Homo sapiens, UniProt P30542); test: Adenosine A1 Receptor Functional Assay (A1GAL2); format: cell-based; conditions: CHO-K1 cells overexpressing human A1 receptor, cAMP inducible beta-galactosidase reporter, 4 nM r-PIA/1 uM Forskolin agonist challenge
T2 construct: expressed in transfected cells; host or cells: CHO-K1 cells with cAMP inducible beta-galactosidase reporter gene
T2 sequence (P30542 1-326): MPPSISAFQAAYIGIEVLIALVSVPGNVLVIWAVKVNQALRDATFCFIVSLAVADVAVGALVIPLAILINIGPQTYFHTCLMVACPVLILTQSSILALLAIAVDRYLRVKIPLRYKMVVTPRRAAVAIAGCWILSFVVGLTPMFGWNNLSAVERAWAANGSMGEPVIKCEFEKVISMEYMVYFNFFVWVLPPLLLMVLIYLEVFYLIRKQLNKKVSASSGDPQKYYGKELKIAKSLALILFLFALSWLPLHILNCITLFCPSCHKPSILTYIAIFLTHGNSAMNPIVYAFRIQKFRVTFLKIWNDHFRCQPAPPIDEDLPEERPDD
Description: Adenosine A1 Receptor Functional Assay (A1GAL2)
To initiate the functional assay, cryopreserved CHO—K1 cells overexpressing the human adenosine A1 receptor and containing a cAMP inducible beta-galactosidase reporter gene were thawed, centrifuged, DMSO containing media removed, and then seeded with fresh culture media into clear 384-well tissue culture treated plates (BD #353961) at a concentration of 10K cells/well. Prior to assay, these plates were cultured for two days at 37° C., 5% CO2, 90% Rh. On the day of the functional assay, culture media was removed and replaced with 45 uL assay medium (Hams/F-12 Modified (Mediatech #10-080CV) supplemented w/0.1% BSA). Test compounds were diluted and 11 point curves created at a 1000× concentration in 100% DMSO. Immediately after addition of assay media to the cell plates, 50 nL of the appropriate test compound antagonist or agonist control curves were added to cell plates using a Cartesian Hummingbird. Compound curves were allowed to incubate at room temperature on cell plates for approximately 15 minutes before addition of a 4 nM r-PIA (Sigma P4532)/1 uM Forskolin (Sigma F3917) agonist challenge (5 uL volume). A control curve of r-PIA in 1 uM Forskolin, a DMSO/Media control, and a single dose of Forskolin were also included on each plate. After additions, cell plates were allowed to incubate at 37° C., 5% CO2, 90% Rh for 5.5-6 hours. After incubation, media was removed, and cell plates were washed lx 5OuL with DPBS w/o Ca & Mg (Mediatech 21-031-CV).
Into dry wells, 20 uL of 1× Reporter Lysis Buffer (Promega E3971 (diluted in dH2O from 5× stock)) was added to each well and plates frozen at −20° C. overnight. For β-galactosidase enzyme calorimetric assay, plates were thawed out at room temperature and 20 μL 2× assay buffer (Promega) was added to each well. Color was allowed to develop at 37° C., 5% CO2, 90% Rh for 1-1.5 h or until reasonable signal appeared. The calorimetric reaction was stopped with the addition of 60 μL/well 1M sodium carbonate. Plates were counted at 405 nm on a SpectraMax Microplate Reader (Molecular Devices). Data was analyzed in Microsoft Excel and IC/EC50 curves were fit using a standardized macro.

[3] = molecular target: T3, human A2a adenosine receptor (Homo sapiens, UniProt P29274); test: Ligand Binding Assay for Adenosine A2a Receptor (A2A-B); conditions: plasma membrane of HEK293 cells containing human A2a receptor, radioligand [3H]CGS21680
T3 construct: purchased PerkinElmer RB-HA2a; host or cells: HEK293 cells (plasma membrane preparation)
Description: Ligand Binding Assay for Adenosine A2a Receptor
Ligand binding assay of adenosine A2a receptor was performed using plasma membrane of HEK293 cells containing human A2a adenosine receptor (PerkinElmer, RB-HA2a) and radioligand [^3H]CGS21680 (PerkinElmer, NET1021). Assay was set up in 96-well polypropylene plate in total volume of 200 μL by sequentially adding 20 μL1:20 diluted membrane, 130 μL assay buffer (50 mM Tris•HCl, pH7.4 10 mM MgCl2, 1 mM EDTA) containing [^3H] CGS21680, 50 μL diluted compound (4×) or vehicle control in assay buffer. Nonspecific binding was determined by […] NECA. Reaction was carried out at room temperature for 2 hours before filtering through 96-well GF/C filter plate pre-soaked in 50 mM Tris•HCl, pH7.4 containing 0.3% polyethylenimine. Plates were then washed 5 times with cold 50 mM Tris•HCl, pH7.4, dried and sealed at the bottom. Microscintillation fluid 30 μL was added to each well and the top sealed. Plates were counted on Packard Topcount for [^3H]. Data was analyzed in Microsoft Excel and GraphPad Prism programs. (Varani, K.; Gessi, S.; Dalpiaz, A.; Borea, P. A. British Journal of Pharmacology, 1996, 117, 1693)

T3 sequence (P29274 whole entry): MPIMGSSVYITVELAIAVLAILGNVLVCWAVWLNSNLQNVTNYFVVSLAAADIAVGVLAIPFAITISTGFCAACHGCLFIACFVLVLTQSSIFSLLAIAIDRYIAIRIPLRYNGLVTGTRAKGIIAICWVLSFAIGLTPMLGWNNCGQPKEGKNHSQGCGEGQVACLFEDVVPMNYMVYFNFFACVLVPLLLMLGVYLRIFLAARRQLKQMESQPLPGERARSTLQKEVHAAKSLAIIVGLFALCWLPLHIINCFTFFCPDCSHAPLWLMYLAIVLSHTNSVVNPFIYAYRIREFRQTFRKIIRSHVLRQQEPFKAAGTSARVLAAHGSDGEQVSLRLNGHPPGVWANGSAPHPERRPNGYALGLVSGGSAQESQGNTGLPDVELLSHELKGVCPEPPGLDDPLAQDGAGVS
T1 sequence (P29274 whole entry): as above

| SMILES | Ki [1] [nM] | Ki [2] [nM] | Ki [3] [nM] |
| --- | --- | --- | --- |
| CC(c1ccccc1)c1cc2c(N)nc(-c3cccc(C#N)c3)nc2s1 (racemic) [Example 10, (±)-3-[4-Amino-6-(1-phenyl-ethyl)-thieno[2,3-d]pyrimidin-2-yl]-benzonitrile] | 340 | 1770 | – |
| N#Cc1cccc(-c2nc(N)c3cc(CCc4ccccc4)sc3n2)c1 [Example 2, 3-(4-Amino-6-phenethyl-thieno[2,3-d]pyrimidin-2-yl)-benzonitrile] | 802 | 4640 | – |
| N#Cc1cccc(-c2nc(N)c3cc(C4(c5ccccc5)CC4)sc3n2)c1 [Example 6, 3-[4-Amino-6-(1-phenyl-cyclopropyl)-thieno[2,3-d]pyrimidin-2-yl]-benzonitrile] | 222 | > 610 | – |
| COc1ccccc1-c1nc(N)c2cc(Cc3ccccc3)sc2n1 [Example 11, 6-Benzyl-2-(2-methoxy-phenyl)-thieno[2,3-d]pyrimidin-4-ylamine] | 217 | 374 | – |
| Nc1nc(-c2cccc(C(F)(F)F)c2)nc2sc(Cc3ccccc3)cc12 [Example 12, 6-Benzyl-2-(3-trifluoromethyl-phenyl)-thieno[2,3-d]pyrimidin-4-ylamine] | 1020 | > 1040 | – |
| COc1ccccc1C(=O)c1cc2c(N)nc(-c3cccc(OC(F)(F)F)c3)nc2s1 [Example 18, [4-Amino-2-(3-trifluoromethoxy-phenyl)-thieno[2,3-d]pyrimidin-6-yl]-(2-methoxy-phenyl)-methanone] | 175 | 865 | – |
| Nc1nc(-c2cccc(F)c2)nc2sc(Cc3cc(F)cc(F)c3)cc12 [Example 20, 6-(3,5-Difluoro-benzyl)-2-(3-fluoro-phenyl)-thieno[2,3-d]pyrimidin-4-ylamine] | 188 | 564 | – |

Compounds with a lower Ki [1], results first:

| Ki [1] [nM] | Ki [2] [nM] | Ki [3] [nM] | SMILES |
| --- | --- | --- | --- |
| 118 | 266 | – | COc1cccc(-c2nc(N)c3cc(Cc4ccccc4)sc3n2)c1 [Example 13, 6-Benzyl-2-(3-methoxy-phenyl)-thieno[2,3-d]pyrimidin-4-ylamine hydrochloride] |
| 80.1 | 162 | – | COc1ccccc1C(=O)c1cc2c(N)nc(-c3cccc(F)c3)nc2s1 [Example 21, [4-Amino-2-(3-fluoro-phenyl)-thieno[2,3-d]pyrimidin-6-yl]-(2-methoxy-phenyl)-methanone] |
| 63.4 | > 1040 | – | C=C(c1ccccc1)c1cc2c(N)nc(-c3cccc(C#N)c3)nc2s1 [Example 5, 3-[4-Amino-6-(1-phenyl-vinyl)-thieno[2,3-d]pyrimidin-2-yl]-benzonitrile] |
| 62.4 | 418 | 39.3 | COc1ccccc1Cc1cc2c(N)nc(-c3cccc(F)c3)nc2s1 [Example 19, 2-(3-Fluoro-phenyl)-6-(2-methoxy-benzyl)-thieno[2,3-d]pyrimidin-4-ylamine] |
| 42.2 | 123 | – | Nc1nc(-c2cccc(F)c2)nc2sc(Cc3ccccc3)cc12 [Example 14, 6-Benzyl-2-(3-fluoro-phenyl)-thieno[2,3-d]pyrimidin-4-ylamine] |
| 39.1 | 1010 | – | N#Cc1cccc(-c2nc(N)c3cc(Cc4ccccc4OC(F)(F)F)sc3n2)c1 [Example 15, 3-[4-Amino-6-(2-trifluoromethoxy-benzyl)-thieno[2,3-d]pyrimidin-2-yl]-benzonitrile] |
| 23 | 1040 | – | COc1ccccc1C(=O)c1cc2c(N)nc(-c3cccc(C#N)c3)nc2s1 [Example 17, 3-[4-Amino-6-(2-methoxy-benzoyl)-thieno[2,3-d]pyrimidin-2-yl]-benzonitrile] |
| 10.6 | 205 | 16.8 | N#Cc1cccc(-c2nc(N)c3cc(Cc4ccccc4)sc3n2)c1 [Example 1, 3-(4-Amino-6-benzyl-thieno[2,3-d]pyrimidin-2-yl)-benzonitrile] |
| 6.15 | 129 | 12.5 | COc1ccccc1Cc1cc2c(N)nc(-c3cccc(C#N)c3)nc2s1 [Example 9, 3-[4-Amino-6-(2-methoxy-benzyl)-thieno[2,3-d]pyrimidin-2-yl]-benzonitrile] |
